The text below walks through data of patent US20250171438A1 (Agios Pharmaceuticals, Inc., priority 2022, published 2025).

Where two headings read alike, the source gives them in different places.

The target in this test is T1, human PAH with the R408W mutation (Homo sapiens, UniProt P00439, R408W).
T1 construct: expressed in transfected cells
T1 sequence (P00439 1-452 R408W): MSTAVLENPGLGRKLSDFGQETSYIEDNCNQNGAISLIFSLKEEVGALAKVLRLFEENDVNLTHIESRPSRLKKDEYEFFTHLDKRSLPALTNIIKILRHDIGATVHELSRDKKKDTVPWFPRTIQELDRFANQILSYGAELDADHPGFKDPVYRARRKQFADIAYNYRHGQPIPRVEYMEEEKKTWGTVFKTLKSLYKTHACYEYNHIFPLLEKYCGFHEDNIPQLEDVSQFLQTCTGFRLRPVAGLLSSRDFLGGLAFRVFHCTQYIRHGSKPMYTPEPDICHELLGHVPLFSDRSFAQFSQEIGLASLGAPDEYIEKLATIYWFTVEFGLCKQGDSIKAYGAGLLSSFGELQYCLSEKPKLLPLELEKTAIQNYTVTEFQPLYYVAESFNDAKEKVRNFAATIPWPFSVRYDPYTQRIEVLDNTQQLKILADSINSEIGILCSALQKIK
The experiment in a line: Cell Based Phenylalanine Flux Assay. Particulars: 13C-Tyrosine by LC-MS, average where tested multiple times.

[1] abbreviates: A375 cells expressing human R408W PAH, 24 hrs compound incubation, read-out: AC50.
[2] abbreviates: A375 cells expressing human R408W PAH, 24 hrs with compound, read-out: AC50.

Take `O=C(c1nnc(-c2cc(C(F)(F)F)ccn2)o1)N1CCc2[nH]cnc2[C@@H]1c1nc2ccccc2s1` [Example 1890, [(4R)-4-(1,3-benzothiazol-2-yl)-1,4,6,7-tetrahydroimidazo[4,5-c]pyridin-5-yl]-[5-[4-(trifluoromethyl)-2-pyridyl]-1,3,4-oxadiazol-2-yl]methanone]: the AC50 under setting [1] fell in the range of 1000 to 5000 nM. With `O=C(c1oc(CCN2CC(F)C2)nc1C(F)(F)F)N1CCc2[nH]cnc2[C@@H]1c1nc2c(F)cccc2s1` [Example 1666, (R)-(2-(2-(3-fluoroazetidin-1-yl)ethyl)-4-(trifluoromethyl)oxazol-5-yl)(4-(4-fluorobenzo[d]thiazol-2-yl)-6,7-dihydro-1H-imidazo[4,5-c]pyridin-5(4H)-yl)methanone], the concentration at half-maximal activity (AC50) under setting [1] was less than 500 nM.

For the molecule `O=C(c1ccnn1C(F)F)N1CCc2[nH]cnc2[C@@H]1c1nc2ccccc2s1` [Example 1818, (R)-(4-(benzo[d]thiazol-2-yl)-6,7-dihydro-1H-imidazo[4,5-c]pyridin-5(4H)-yl)(1-(difluoromethyl)-1H-pyrazol-5-yl)methanone], under setting [1], the AC50 is 1000 to 5000 nM.

For `CC(F)(F)c1ncoc1C(=O)N1CCc2[nH]cnc2[C@@H]1c1nc2c(F)cccc2s1` [Example 2008, (R)-(4-(1,1-difluoroethyl)oxazol-5-yl)(4-(4-fluorobenzo[d]thiazol-2-yl)-6,7-dihydro-1H-imidazo[4,5-c]pyridin-5(4H)-yl)methanone], the AC50 under setting [1] fell in the range of 1000 to 5000 nM. Regarding `Cn1nc(-c2ccc(Cl)cc2)cc1C(=O)N1CCc2[nH]cnc2C1c1nc2c(F)cccc2s1` (centres unmarked), under setting [2], the AC50 fell in the range of 1000 to 5000 nM. Turning to `O=C(CC1CC1)N1CCc2[nH]cnc2[C@@H]1c1nc2ccc(F)cc2s1` [Example 1118, (R)-2-cyclopropyl-1-(4-(6-fluorobenzo[d]thiazol-2-yl)-6,7-dihydro-1H-imidazo[4,5-c]pyridin-5(4H)-yl)ethanone], the AC50 under setting [1] was more than 5000 nM.

Consider `O=C(c1oc(-c2ccccn2)nc1C(F)F)N1CCc2[nH]cnc2[C@@H]1c1nc2c(F)cccc2s1` [Example 1797, (R)-(4-(difluoromethyl)-2-(pyridin-2-yl)oxazol-5-yl)(4-(4-fluorobenzo[d]thiazol-2-yl)-6,7-dihydro-1H-imidazo[4,5-c]pyridin-5(4H)-yl)methanone], for which, under setting [1], the AC50 was less than 500 nM. Turning to `O=C(C1CN(c2ccc(F)cn2)C1)N1CCc2[nH]cnc2[C@@H]1c1nc2ccccc2s1` [Example 1838, (R)-(4-(benzo[d]thiazol-2-yl)-6,7-dihydro-1H-imidazo[4,5-c]pyridin-5(4H)-yl)(1-(5-fluoropyridin-2-yl)azetidin-3-yl)methanone], the AC50 under setting [1] was more than 5000 nM. On the same count and under the same terms, with `CC(C)(O)Cc1nc(C(F)F)c(C(=O)N2CCc3[nH]cnc3[C@@H]2c2nc3c(F)cccc3s2)o1` [Example 2062, (R)-(4-(difluoromethyl)-2-(2-hydroxy-2-methylpropyl)oxazol-5-yl)(4-(4-fluorobenzo[d]thiazol-2-yl)-6,7-dihydro-1H-imidazo[4,5-c]pyridin-5(4H)-yl)methanone] the figure was 1000 to 5000 nM; with `Cc1nc(-c2cnn(C)c2)oc1C(=O)N1CCc2[nH]cnc2[C@@H]1c1nc2ccccc2s1` [Example 1375, (R)-(4-(benzo[d]thiazol-2-yl)-6,7-dihydro-1H-imidazo[4,5-c]pyridin-5(4H)-yl)(4-methyl-2-(1-methyl-1H-pyrazol-4-yl)oxazol-5-yl)methanone], 1000 to 5000 nM; with `CNC(C)(C)c1nc(C(F)F)c(C(=O)N2CCc3[nH]cnc3[C@@H]2c2nc3c(F)cccc3s2)o1` [Example 2070, (R)-(4-(difluoromethyl)-2-(2-(methylamino)propan-2-yl)oxazol-5-yl)(4-(4-fluorobenzo[d]thiazol-2-yl)-6,7-dihydro-1H-imidazo[4,5-c]pyridin-5(4H)-yl)methanone], less than 500 nM. `O=C(c1nnc(-c2ccccn2)o1)N1CCc2[nH]cnc2[C@@H]1c1nc2ccccc2s1` [Example 1440, (R)-(4-(benzo[d]thiazol-2-yl)-6,7-dihydro-1H-imidazo[4,5-c]pyridin-5(4H)-yl)(5-(pyridin-2-yl)-1,3,4-oxadiazol-2-yl)methanone]: the concentration at half-maximal activity (AC50) under setting [1] lay within 1000 to 5000 nM.

Turning to `Cc1nnc(CCC(=O)N2CCc3[nH]cnc3C2c2nc3ccc(F)cc3[nH]2)s1` (centres unmarked), under setting [2], the AC50 was more than 5000 nM. As to `O=C(c1cnn(C2CC2)c1C(F)F)N1CCc2[nH]cnc2[C@H]1c1nc2c(F)cccc2s1` [Example 1999, (S)-(1-cyclopropyl-5-(difluoromethyl)-1H-pyrazol-4-yl)(4-(4-fluorobenzo[d]thiazol-2-yl)-6,7-dihydro-1H-imidazo[4,5-c]pyridin-5(4H)-yl)methanone], under setting [1], the AC50 was in the range of 500 to 1000 nM. Regarding `O=C(c1nncs1)N1CCc2[nH]cnc2[C@H]1c1nc2ccccc2[nH]1` (single isomer, unassigned), the AC50 under setting [2] was in the range of 1000 to 5000 nM.

`CC(C)(F)c1ncc(C(=O)N2CCc3[nH]cnc3[C@H]2c2nc3ccccc3s2)s1` [Example 1463]: the AC50 under setting [1] is less than 500 nM. Consider `O=C(N1CCC(O)C1)N1CCc2[nH]cnc2C1c1nc2ccccc2s1` (centres unmarked), for which the AC50 under setting [2] lay in the range of 1000 to 5000 nM. Regarding `O=C(c1cnn2cc(F)ccc12)N1CCc2[nH]cnc2[C@H]1c1nc2cc(F)ccc2s1` [Example 1333, (S)-(4-(5-fluorobenzo[d]thiazol-2-yl)-6,7-dihydro-1H-imidazo[4,5-c]pyridin-5(4H)-yl)(6-fluoropyrazolo[1,5-a]pyridin-3-yl)methanone], the AC50 under setting [1] is 500 to 1000 nM. Turning to `Cc1nnc(C(=O)N2CCc3[nH]cnc3C2c2nc3ccc(Cl)cc3[nH]2)s1` (centres unmarked), the AC50 (AC50, A375 cells expressing human R408W PAH, 24 hrs with compound) fell in the range of 1000 to 5000 nM. As to `COCCc1ccc2c(C(=O)N3CCc4[nH]cnc4[C@@H]3c3nc4ccccc4s3)cnn2c1` [Example 1452, (R)-(4-(benzo[d]thiazol-2-yl)-6,7-dihydro-1H-imidazo[4,5-c]pyridin-5(4H)-yl)(6-(2-methoxyethyl)pyrazolo[1,5-a]pyridin-3-yl)methanone], under setting [1], the AC50 is more than 5000 nM.

For `Cc1nc(CCCN(C)C)oc1C(=O)N1CCc2[nH]cnc2C1c1nc2ccccc2s1` (centres unmarked), under setting [2], the AC50 is more than 5000 nM.

As to `O=C(c1oc(-c2ccccn2)nc1C(F)F)N1CCc2[nH]cnc2[C@H]1c1nc2c(F)cccc2s1` [Example 1798, (S)-(4-(difluoromethyl)-2-(pyridin-2-yl)oxazol-5-yl)(4-(4-fluorobenzo[d]thiazol-2-yl)-6,7-dihydro-1H-imidazo[4,5-c]pyridin-5(4H)-yl)methanone], the AC50 under setting [1] was less than 500 nM. As to `CC(C)(O)c1nc(C(F)F)c(C(=O)N2CCc3[nH]cnc3[C@@H]2c2nc3ccccc3s2)o1` [Example 1810, (R)-(4-(benzo[d]thiazol-2-yl)-6,7-dihydro-1H-imidazo[4,5-c]pyridin-5(4H)-yl)(4-(difluoromethyl)-2-(2-hydroxypropan-2-yl)oxazol-5-yl)methanone], the AC50 under setting [1] is 1000 to 5000 nM. For the molecule `O=C(CCc1nccs1)N1CCc2nc[nH]c2C1c1nc2c(Cl)cccc2s1` (centres unmarked), the AC50 under setting [2] is 1000 to 5000 nM. Turning to `Cc1ccc2sc([C@H]3c4nc[nH]c4CCN3C(=O)c3cncs3)nc2c1` [Example 1294, (R)-(4-(5-methylbenzo[d]thiazol-2-yl)-6,7-dihydro-1H-imidazo[4,5-c]pyridin-5(4H)-yl)(thiazol-5-yl)methanone], the AC50 under setting [1] was 1000 to 5000 nM. `O=C(c1ccnn1C(F)F)N1CCc2[nH]cnc2[C@@H]1c1nc2c(F)cccc2s1` [Example 1740, (R)-(1-(difluoromethyl)-1H-pyrazol-5-yl)(4-(4-fluorobenzo[d]thiazol-2-yl)-6,7-dihydro-1H-imidazo[4,5-c]pyridin-5(4H)-yl)methanone]: the AC50 under setting [1] is 1000 to 5000 nM.
